Assay results taken from patent publication US20070072946A1 (priority 2005, published 2007).
“And” between values parts separate entries of the source, which are not always exact repeats. Identical values can stand only once. Counter-ions that a name gives are not always drawn.

Tests used:
[1] = tested on: patients with FMS; settings: cited from earlier work
[2] = tested on: patients who met the 1990 ACR criteria for fibromyalgia syndrome; assay: Multi-center double-blind, randomized, placebo-controlled study of milnacipran for fibromyalgia (Example 1, FMS031); type: in vivo, human; settings: for m, number of responders: observed cases; for percentage of responders (greater than 30% reduction in pain from baseline and improvement on the PGIC): observed cases (OC), hydrochloride
Experimental: The primary outcome was a composite responder analysis assessing response rate at weeks 14 and 15, and the secondary analysis assessed response rate at weeks 26 and 27.
This was a multi-center, randomized, double-blinded, placebo-controlled three-arm study, which enrolled 888 patients who met the 1990 ACR criteria for fibromyalgia syndrome as well as the more detailed admission criteria outlined in the protocol.
Patients recorded baseline symptoms for the first two weeks after washing off anti-depressants, benzodiazepines, and certain other drugs that could potentially interfere with efficacy measurements.
All randomized medications (placebo and milnacipran) were administered in a split-dose (BID) fashion. The doses were administered in a dose escalation regimen as outlined below: • Step 1: 12.5 mg 1 day (12.5 mg pm) • Step 2: 25 mg 2 days (12.5 mg am, 12.5 mg pm) • Step 3: 50 mg 4 days (25 mg am, 25 mg pm) • Step 4: 100 mg 7 days (50 mg am, 50 mg pm) • Step 5: 200 mg 7 days (100 mg am, 100 mg pm).
Patients were required to complete electronic diary, as well as additional paper assessments as described in the schedule of study assessments.
In addition to the daily completion of a proprietary electronic patient diary, the following assessments were obtained:
a. Primary Variables: patient global impression of change (PGIC) and the Fibromyalgia Impact Questionnaire (FIQ);
d. FMS Status Assessments:, Patient pain 24 hour and 7 day recall VAS, the SF-36, Multiple Ability Self-report Questionnaire (MASQ, cognitive function), the Multidimensional Health Assessment Questionnaire (MDHAQ) and the Multi-dimensional Fatigue Inventory (MFI). Diary assessments include current pain (morning, random daily, and evening reports); daily recall pain (morning report); medications taken (evening report); overall pain past week (weekly report), overall fatigue in the last week (weekly report), and the extent that pain kept the patient from caring for themselves (weekly report).
The primary endpoint of this study was a composite responder analysis implementing analysis of three domains of interest, evaluated at […]. The domains measured were:
1) pain (measured by an electronic diary as a daily recall pain score, calculated to weekly average scores);
2) patient global (measured by the PGIC, 1-7 scale); and
3) physical function (measured by the FIQ-PF).
For the primary analysis, the pain domain score was determined by a calculation that compared the average of treatment weeks 14 and 15 to the two baseline weeks, and treatment weeks 26 and 27 vs. baseline for the secondary analysis. The last observation was carried forward if neither the week 14 nor week 15 (or week 26/27) patient self-reported pain score is available to compare to the baseline value.
A responder was defined as a subject who experienced a greater than 30% reduction in pain from baseline and improvement on the PGIC.
See Table 1 for a summary of the results in the Intent-to-Treat Population and Table 2 for a summary of the Last Observation Carried Forward (LOCF), Baseline Observation Carried Forward (BOCF) and study completer (OC) populations. LOCF is an analysis in which observations are carried forward to the last time point for patients who dropped out. The LOCF analysis treats the carried-forward data as observed data at the last time point. BOCF is an analysis that requires the patient remain active in the trial to be evaluated for response. If a patient withdraws from the trial for any reason they are classed as a non-responder irregardless of their pain and global scores at the time of withdrawal.

[3] = tested on: fibromyalgia patients; settings: cited from earlier work
[4] = tested on: subjects suffering from fibromyalgia syndrome; settings: cited from earlier work; for subjects with significant clinical improvement: after one month; for long-term efficacy: at six months, 19% improvement with placebo; for difference from placebo: at three months
[5] = both milnacipran treatment groups (BID and QD), up to 200 mg/day

**Q.** What does the source list for `COc1ccc(C(CN(C)C)C2(O)CCCCC2)cc1` (centres unmarked) [venlafaxine]?
**A.** patients with insomnia requiring adjunctive medical therapy ([1]; of 11 completing patients): 3 patients; patients with a positive response (50% or greater improvement in two different measurements of overall pain) ([1]; of the 11 patients that completed the study): 6 patients

**Q.** Which “efficacy of low dose compared with high dose” value ([2]; 100 mg/day vs 200 mg/day, long-term treatment) does the source give for `CCN(CC)C(=O)C1(c2ccccc2)CC1CN` (centres unmarked) [milnacipran, Z-2-aminomethyl-1-phenyl-N,N-diethylcyclopropanecarboxamide hydrochloride] here?
**A.** The value was “almost as effective as continued administration of high dose milnacipran”.

**Q.** And the “Individual Component Responder Rate, PGIC (LOCF)” value ([2]; 100 mg, 3 month)?
**A.** Its value is 54.0%.

**Q.** And the “Individual Component Responder Rate, Pain (LOCF)” value ([2]; 100 mg, 3 month)?
**A.** The value was 35.7%.

**Q.** What about the “Pain Composite Responder Rate, Sensitivity Analysis I (BOCF)” value (“Pain Composite Responder Rate … (BOCF)” for short) ([2]; 100 mg, 3 month) of the same compound?
**A.** The value was 32.1%.

**Q.** What about the “Pain Composite Responder Rate, Sensitivity Analysis II” value ([2]; 100 mg, 3 month) of the same compound?
**A.** The value was 32.%.

**Q.** And the “Pain Composite Responder Rate, Sensitivity Analysis III” value ([2]; 100 mg, 3 month)?
**A.** The value was 32.1%.

**Q.** And the “Pain Composite Responder Rate, Primary Analysis (LOCF)” value ([2]; 100 mg, 3 month, N = 224)?
**A.** Its value is 33.5%.

**Q.** What about the “Individual Component Responder Rate, PGIC (LOCF)” value ([2]; 100 mg, 6 month) of the same compound?
**A.** The value was 49.6%.

**Q.** And the “Individual Component Responder Rate, Pain (LOCF)” value ([2]; 100 mg, 6 month)?
**A.** Its value is 35.7%.

**Q.** And the “Pain Composite Responder Rate … (BOCF)” value ([2]; 100 mg, 6 month)?
**A.** The value was 26.8%.

**Q.** And the “Pain Composite Responder Rate, Sensitivity Analysis II” value ([2]; 100 mg, 6 month)?
**A.** The value was 27.2%.

**Q.** What about the “Pain Composite Responder Rate, Sensitivity Analysis III” value ([2]; 100 mg, 6 month) of the same compound?
**A.** The value was 29.5%.

**Q.** And the “Pain Composite Responder Rate, Primary Analysis (LOCF)” value ([2]; 100 mg, 6 month, N = 224)?
**A.** Its value is 30.8%.

**Q.** And the “m, number of responders” value ([2]; 100 mg, treatment weeks 14-15, n = 135)?
**A.** The value was 72.

**Q.** What about the “m, number of responders” value ([2]; 100 mg, treatment weeks 26-27, n = 121) of the same compound?
**A.** Its value is 60.

**Q.** And the “Individual Component Responder Rate, PGIC (LOCF)” value ([2]; 200 mg, 3 month)?
**A.** Its value is 50.6%.

**Q.** And the “Individual Component Responder Rate, Pain (LOCF)” value ([2]; 200 mg, 3 month)?
**A.** The value was 38.3%.

**Q.** What about the “Pain Composite Responder Rate … (BOCF)” value ([2]; 200 mg, 3 month) of the same compound?
**A.** The value was 32.4%.

**Q.** What about the “Pain Composite Responder Rate, Sensitivity Analysis II” value ([2]; 200 mg, 3 month) of the same compound?
**A.** Its value is 32.7%.

**Q.** What about the “Pain Composite Responder Rate, Sensitivity Analysis III” value ([2]; 200 mg, 3 month) of the same compound?
**A.** Its value is 32.4%.

**Q.** What about the “Pain Composite Responder Rate, Primary Analysis (LOCF)” value ([2]; 200 mg, 3 month, N = 441) of the same compound?
**A.** Its value is 34.9%.

**Q.** What about the “Individual Component Responder Rate, PGIC (LOCF)” value ([2]; 200 mg, 6 month) of the same compound?
**A.** Its value is 49.9%.

**Q.** What about the “Individual Component Responder Rate, Pain (LOCF)” value ([2]; 200 mg, 6 month) of the same compound?
**A.** Its value is 35.4%.

**Q.** And the “Pain Composite Responder Rate … (BOCF)” value ([2]; 200 mg, 6 month)?
**A.** The value was 27.0%.

**Q.** And the “Pain Composite Responder Rate, Sensitivity Analysis II” value ([2]; 200 mg, 6 month)?
**A.** Its value is 28.6%.

**Q.** What about the “Pain Composite Responder Rate, Sensitivity Analysis III” value ([2]; 200 mg, 6 month) of the same compound?
**A.** Its value is 29.9%.

**Q.** What about the “Pain Composite Responder Rate, Primary Analysis (LOCF)” value ([2]; 200 mg, 6 month, N = 441) of the same compound?
**A.** The value was 32.2%.

**Q.** And the “m, number of responders” value ([2]; 200 mg, treatment weeks 14-15, n = 260)?
**A.** Its value is 143.

**Q.** And the “m, number of responders” value ([2]; 200 mg, treatment weeks 26-27, n = 230)?
**A.** The value was 119.

**Q.** And the “long-term relief from fibromyalgia and its symptoms” value ([2]; continued daily administration for at least three months)?
**A.** Its value is “provides long-term (at least three months) relief from fibromyalgia and its symptoms”.

**Q.** And the “percentage of responders (greater than 30% reduction in pain from baseline and improvement on the PGIC)” value ([2]; milnacipran 100 mg/day BID, 3 months (treatment weeks 14-15))?
**A.** Its value is 53.33% and 53.3%.

**Q.** What about the “percentage of responders (greater than 30% reduction in pain from baseline and improvement on the PGIC)” value ([2]; milnacipran 100 mg/day BID, 3 months (treatment weeks 14-15), listed as Milnacipran) of the same compound?
**A.** The value was 53.33%.

**Q.** What about the “percentage of responders (greater than 30% reduction in pain from baseline and improvement on the PGIC)” value ([2]; milnacipran 100 mg/day BID, 6 months (treatment weeks 26-27)) of the same compound?
**A.** The value was 49.59% and 49.6%.

**Q.** And the “percentage of responders (greater than 30% reduction in pain from baseline and improvement on the PGIC)” value ([2]; milnacipran 100 mg/day BID, 6 months (treatment weeks 26-27), listed as Milnacipran)?
**A.** Its value is 49.59%.

**Q.** And the “percentage of responders (greater than 30% reduction in pain from baseline and improvement on the PGIC)” value ([2]; milnacipran 200 mg/day BID, 3 months (treatment weeks 14-15))?
**A.** The value was 55.0%.

**Q.** And the “percentage of responders (greater than 30% reduction in pain from baseline and improvement on the PGIC)” value ([2]; milnacipran 200 mg/day BID, 3 months (treatment weeks 14-15), listed as Milnacipran)?
**A.** Its value is 55.00%.

**Q.** What about the “percentage of responders (greater than 30% reduction in pain from baseline and improvement on the PGIC)” value ([2]; milnacipran 200 mg/day BID, 6 months (treatment weeks 26-27)) of the same compound?
**A.** The value was 51.74% and 51.7%.

**Q.** And the “percentage of responders (greater than 30% reduction in pain from baseline and improvement on the PGIC)” value ([2]; milnacipran 200 mg/day BID, 6 months (treatment weeks 26-27), listed as Milnacipran)?
**A.** Its value is 51.74%.

**Q.** What about the “deaths or serious adverse events associated with treatment” value ([3]; Phase II study) of the same compound?
**A.** Its value is “no deaths or serious adverse events”.

**Q.** And the “acute (short-term) efficacy on the symptom of pain in FMS” value ([3]; Phase II trial)?
**A.** The value was “effective acute (short-term) therapy for the symptom of pain in FMS”.

**Q.** What about the “completers reporting an improvement in their overall status on the PGIC” value [3, 5] of the same compound?
**A.** The value was “over 70%”.

**Q.** And the “completers reporting worsening on the PGIC” value [3, 5]?
**A.** Its value is 10%.

**Q.** What about the “patients with elevation in hepatic enzymes reported as adverse event” value ([3]; milnacipran-treated patients) of the same compound?
**A.** The value was 2%.

**Q.** And the “efficacy of BID versus QD dosing in treating pain” value ([3]; twice-daily dosing compared with QD)?
**A.** Its value is “more effective in treating pain than QD dosing”.

**Q.** And the “efficacy of BID versus QD dosing on fatigue, mood, global wellness, and function” value ([3]; twice-daily vs once-daily dosing, up to 200 mg/day)?
**A.** Its value is “approximately equally effective”.

**Q.** What does the source list for `CN(C)CCC=C1c2ccccc2CCc2ccccc21` [amitriptyline]?
**A.** subjects with significant clinical improvement [4]: 21%; long-term efficacy [4]: no long-term efficacy could be demonstrated; difference from placebo [4]: no difference between either treatment group and placebo

**Q.** For `CN(C)CCC=C1c2ccccc2C=Cc2ccccc21` [cyclobenzaprine], which “subjects with significant clinical improvement” value [4] is on record?
**A.** The value was 12%.

**Q.** And the long-term efficacy [4]?
**A.** The long-term efficacy was “no long-term efficacy could be demonstrated”.

**Q.** And the difference from placebo [4]?
**A.** Its difference from placebo is “no difference between either treatment group and placebo”.
